Among the data in patent EP4755890A1, “OXO-TRICYCLIC DERIVATIVE AND PHARMACEUTICAL USE THEREOF” (Haisco Pharmaceutical Group Co., Ltd., priority 2023, dated 2025) are IC50 values, retold here.

In test [1] the target is T1, WRN protein (AA N517-P1238, ICE, Cat. S2212T-H56HZ) (Homo sapiens, UniProt Q14191).
T1 construct: WRN protein (AA N517-P1238, ICE, Cat. S2212T-H56HZ); purchased ICE S2212T-H56HZ
Kind of test: Assay for WRN helicase activity (FORKF dsDNA unwinding, fluorescence). Format: biochemical. The following applies: inhibition of WRN helicase activity; 10 nM WRN, 10 nM FORKF, 2 mM ATP. The method, then: The assay buffer working solution prepared with RNAase-free water was as follows: 25 mM Tris (pH 7.5), 2 mM MgCl2, 50 mM NaCl, 0.02% BSA, 0.01% Tween, and 1 mM DTT. WRN protein (AA N517-P1238, ICE, Cat. S2212T-H56HZ) was obtained through protein expression and purification in vitro. Two single-stranded DNAs were synthesized: […]-BHQ2 (quencher), and (fluorophore) TAMRA-[…]. dsDNA (FORKF) was obtained via annealing of the two single-stranded DNAs. When the WRN protein bound to FORKF, the dsDNA was unwound, exposing the fluorophore, thereby generating fluorescence. 2 µL of compounds at different concentrations and 4 µL of WRN protein were added to a 384-well black plate (Greiner, Cat#784075). The plate was pre-incubated at room temperature for 20 minutes. 2 µL each of ATP and the FORKF substrate were added. The working concentrations of the WRN protein, FORKF, and ATP were 10 nM, 10 nM, and 2 mM, respectively. The plate was incubated at room temperature for 20 minutes. After the incubation was completed, the fluorescence value was read at Ex 540 nm/Em 590 nm using a BMG microplate reader (PHERAstar FSX).
The inhibition rate was calculated according to Formula 2, where RLUsample is the readout of the compound well, RLUmax is the readout of the DMSO control well, and RLUmin is the readout of the control well without the WRN protein. Curve fitting was performed via a four-parameter logistic model using GraphPad Prism software, and the IC50 value (the concentration of the compound when the inhibition rate was 50%) was calculated. Inhibition% = (1−(RLUsample−RLUmin)/(RLUmax−RLUmin)) × 100% [formula] Table 2. Results of inhibitory activity of test compounds against WRN helicase activity

Another test has as its system SW48 cells. The experiment in a line: SW48 cell proliferation inhibition assay (CellTiter-Glo). Format: cell-based. To be noted: Homo sapiens, 96 h, 4 days, read-out: Inhibitory activity against SW48 cell proliferation IC50. The method, then: The culture conditions for SW48 cells were as follows: Leibovitz L15 + 10% FBS + 1% penicillin-streptomycin, and the cells were cultured in an incubator without CO2 at 37°C. On the first day, the SW48 cells in the exponential growth phase were collected and plated in 96-well cell culture plates at a density of 1000 cells/well (180 µL/well). The plates were cultured overnight in an incubator without CO2 at 37°C. T0 wells were plated simultaneously during the plating process. The next day, 20 µL of compounds at different concentrations were added to each well (nine compound concentration gradients, one DMSO well, and one blank well; each compound concentration was plated in triplicate), and the final concentration of DMSO in each well was 0.1%. The plates were cultured in an incubator without CO2 at 37°C for 4 days. On the same day of compound addition, the T0 plate was detected using the CellTiter-Glo Kit, and the detected value was recorded as RLU0. After the culture was completed, 100 µL of detection solution (Cell Viability Assay, Promega) was added to each well. The plates were incubated at room temperature for 10 minutes with slow shaking. The chemiluminescence reading was read using a BMG microplate reader (PHERAstar FSX). The results were processed according to Formula (5) to calculate the proliferation inhibition rate of compounds at each concentration. Curve fitting was performed via a four-parameter logistic model using GraphPad Prism software, and the GI50 value (the concentration of the compound when the proliferation inhibition rate was 50%) was calculated. In the formula, RLUcompound is the readout of the drug-treated group, RLUcontrol is the average value of the compound vehicle control group, and RLUBlank is the average value of the blank control group. [formula] Table 3. Results of inhibitory activity of test compounds against cell proliferation
(In general: Cellular ATP, detected with luciferase, serves as a proxy for viable cell number.)

The target in another test is T2, CYP1A2 (Homo sapiens, UniProt P05177).
T2 construct: co-incubated with human liver microsomes; from tissue; host or cells: human liver microsomes
T2 sequence (P05177 1-516): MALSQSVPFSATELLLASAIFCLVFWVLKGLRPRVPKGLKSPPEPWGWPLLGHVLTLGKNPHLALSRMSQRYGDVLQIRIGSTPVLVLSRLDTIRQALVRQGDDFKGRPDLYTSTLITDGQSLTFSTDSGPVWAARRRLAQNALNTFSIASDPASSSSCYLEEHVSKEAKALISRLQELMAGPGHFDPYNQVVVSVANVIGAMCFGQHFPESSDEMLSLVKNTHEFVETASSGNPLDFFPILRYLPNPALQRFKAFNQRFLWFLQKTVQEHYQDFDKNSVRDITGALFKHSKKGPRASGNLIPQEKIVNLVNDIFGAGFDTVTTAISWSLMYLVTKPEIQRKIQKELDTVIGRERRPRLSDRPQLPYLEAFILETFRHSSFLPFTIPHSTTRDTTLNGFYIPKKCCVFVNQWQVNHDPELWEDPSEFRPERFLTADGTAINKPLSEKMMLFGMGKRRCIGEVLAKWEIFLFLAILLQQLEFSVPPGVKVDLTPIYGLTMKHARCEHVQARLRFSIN
Kind of test: CYP450 enzyme activity inhibition assay, CYP1A2. Format: in vitro ADME. The method, then: (§1) The purpose of this study was to evaluate the effects of the test compounds on the activities of five isoenzymes (CYP1A2, CYP2C9, CYP2C19, CYP2D6, and CYP3A4) of human liver microsomal cytochrome P450 (CYP) using an in vitro testing system. The specific probe substrates for each CYP450 isoenzyme were co-incubated with human liver microsomes and the test compounds at different concentrations, and reduced nicotinamide adenine dinucleotide phosphate (NADPH) was added to initiate the reaction. After the reactions were completed, the samples were treated, and liquid chromatography-tandem mass spectrometry (LC-MS/MS) was used to quantitatively detect metabolites produced by the specific substrates. The changes in CYP enzyme activities were determined, and the IC50 values were calculated to evaluate the inhibitory potential of the test compounds against each CYP enzyme subtype.

The target of another test is T3, CYP2C19 (Homo sapiens, UniProt P33261).
T3 construct: co-incubated with human liver microsomes; from tissue; host or cells: human liver microsomes
Kind of test: CYP450 enzyme activity inhibition assay, CYP2C19. Type of test: in vitro ADME. The method, then: as §1

The target of another test is T4, CYP2D6 (Homo sapiens, UniProt P10635).
T4 construct: co-incubated with human liver microsomes; from tissue; host or cells: human liver microsomes
The experiment in a line: CYP450 enzyme activity inhibition assay, CYP2D6. Type of test: in vitro ADME. As to the method:
as §1

The target in the next test is T5, CYP3A4 (Homo sapiens, UniProt P08684).
T5 construct: co-incubated with human liver microsomes; from tissue; host or cells: human liver microsomes
Kind of test: CYP450 enzyme activity inhibition assay, CYP3A4. Type of test: in vitro ADME. As to the method: as §1

Each structure is given as a SMILES string.

T5 sequence (P08684 whole entry): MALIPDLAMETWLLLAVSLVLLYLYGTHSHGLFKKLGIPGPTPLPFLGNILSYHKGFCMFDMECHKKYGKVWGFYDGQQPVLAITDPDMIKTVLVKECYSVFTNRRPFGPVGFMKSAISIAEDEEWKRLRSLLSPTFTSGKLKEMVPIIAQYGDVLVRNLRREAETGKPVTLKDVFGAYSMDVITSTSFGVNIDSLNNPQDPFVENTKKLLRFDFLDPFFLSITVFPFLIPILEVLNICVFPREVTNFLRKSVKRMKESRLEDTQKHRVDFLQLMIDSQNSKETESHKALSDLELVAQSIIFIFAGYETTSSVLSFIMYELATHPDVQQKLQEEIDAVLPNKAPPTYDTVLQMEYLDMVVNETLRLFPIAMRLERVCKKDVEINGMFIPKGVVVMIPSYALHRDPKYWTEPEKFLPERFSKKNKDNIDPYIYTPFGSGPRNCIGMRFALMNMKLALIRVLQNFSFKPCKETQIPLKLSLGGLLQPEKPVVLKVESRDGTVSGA
T1 sequence (Q14191 517-1238, stated change not applied): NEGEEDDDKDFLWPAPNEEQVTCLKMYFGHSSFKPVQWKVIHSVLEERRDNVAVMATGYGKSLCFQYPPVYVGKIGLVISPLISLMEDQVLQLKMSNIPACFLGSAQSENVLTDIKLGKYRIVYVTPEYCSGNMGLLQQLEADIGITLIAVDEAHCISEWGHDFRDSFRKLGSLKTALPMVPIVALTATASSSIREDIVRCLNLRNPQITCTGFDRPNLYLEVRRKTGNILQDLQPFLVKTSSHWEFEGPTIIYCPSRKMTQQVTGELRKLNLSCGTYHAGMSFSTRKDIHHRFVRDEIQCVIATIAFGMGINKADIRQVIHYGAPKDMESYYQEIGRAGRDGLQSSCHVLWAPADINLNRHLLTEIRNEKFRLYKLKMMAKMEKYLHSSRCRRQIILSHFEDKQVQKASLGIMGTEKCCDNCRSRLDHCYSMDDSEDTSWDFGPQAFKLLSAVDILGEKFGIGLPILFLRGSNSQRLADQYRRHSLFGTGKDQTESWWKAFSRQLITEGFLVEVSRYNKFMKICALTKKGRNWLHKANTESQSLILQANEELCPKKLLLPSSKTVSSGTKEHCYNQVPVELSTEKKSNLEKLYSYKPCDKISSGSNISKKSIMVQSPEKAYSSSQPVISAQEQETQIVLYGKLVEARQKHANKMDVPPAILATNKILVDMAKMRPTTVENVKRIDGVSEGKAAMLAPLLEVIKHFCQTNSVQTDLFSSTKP
T3 sequence (P33261 whole entry): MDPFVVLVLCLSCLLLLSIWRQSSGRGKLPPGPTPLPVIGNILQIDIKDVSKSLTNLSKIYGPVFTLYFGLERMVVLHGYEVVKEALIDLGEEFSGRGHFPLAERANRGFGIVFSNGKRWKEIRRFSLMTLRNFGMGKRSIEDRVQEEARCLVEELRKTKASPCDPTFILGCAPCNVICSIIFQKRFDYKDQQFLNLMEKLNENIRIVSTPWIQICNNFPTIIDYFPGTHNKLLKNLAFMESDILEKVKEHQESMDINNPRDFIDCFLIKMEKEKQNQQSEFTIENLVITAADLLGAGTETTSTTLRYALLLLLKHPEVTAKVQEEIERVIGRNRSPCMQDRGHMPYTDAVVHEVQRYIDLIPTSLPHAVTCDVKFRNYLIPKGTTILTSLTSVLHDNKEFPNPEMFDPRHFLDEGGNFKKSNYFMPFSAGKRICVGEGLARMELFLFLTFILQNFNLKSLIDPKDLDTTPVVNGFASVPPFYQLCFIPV
T4 sequence (P10635 whole entry): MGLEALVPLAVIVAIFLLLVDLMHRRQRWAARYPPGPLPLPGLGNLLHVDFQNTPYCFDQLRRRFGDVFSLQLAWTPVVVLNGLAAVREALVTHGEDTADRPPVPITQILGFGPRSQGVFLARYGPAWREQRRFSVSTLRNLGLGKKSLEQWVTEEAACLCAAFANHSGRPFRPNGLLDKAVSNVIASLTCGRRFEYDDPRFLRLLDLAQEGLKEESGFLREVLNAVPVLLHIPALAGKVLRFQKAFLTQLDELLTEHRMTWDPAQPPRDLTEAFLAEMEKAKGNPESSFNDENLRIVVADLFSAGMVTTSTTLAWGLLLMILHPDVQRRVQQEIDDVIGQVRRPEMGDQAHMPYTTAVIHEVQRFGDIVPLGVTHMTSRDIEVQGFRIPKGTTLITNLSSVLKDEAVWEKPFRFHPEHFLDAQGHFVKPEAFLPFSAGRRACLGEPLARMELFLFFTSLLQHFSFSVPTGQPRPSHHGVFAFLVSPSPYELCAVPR

On to `Cc1ncnc(C(=O)N2CCN(c3c4n(c5nc(C6=CCOCC6)nn5c3=O)C(C(=O)Nc3ccc(C(F)(F)F)cc3Cl)CCC4)C[C@H]2C)c1O` (single isomer, unassigned) [Compound 8-B], for which the IC50 is less than 0.02 µM in test [1]; less than 0.1 µM in the test with SW48 cells; more than 30 µM at CYP1A2; more than 30 µM at CYP2C19; more than 30 µM against CYP2D6; more than 30 µM against CYP3A4.

On to `Cc1ncnc(C(=O)N2CCN(c3c4n(c5nc(C6=CCOCC6)nn5c3=O)[C@@H](C(=O)Nc3ccc(C(F)(F)F)cc3Cl)CCC4)CC2)c1O` [Compound 1-B], for which the IC50 in test [1] was less than 0.02 µM; with SW48 cells it was less than 0.1 µM; at CYP1A2 it was more than 30 µM; on CYP2C19, more than 30 µM; at CYP2D6, more than 30 µM; against CYP3A4 it was more than 30 µM.

Regarding `Cc1ncnc(C(=O)N2[C@@H](C)CN(c3c4n(c5nc(C6=CCOCC6)nn5c3=O)[C@@H](C(=O)Nc3ccc(C(F)(F)F)cc3Cl)CCC4)C[C@@H]2C)c1O` [Compound 20-A], the IC50 was less than 0.02 µM in test [1]; less than 0.1 µM in the test with SW48 cells; more than 30 µM at CYP1A2; more than 30 µM on CYP2C19; more than 30 µM on CYP2D6; more than 30 µM at CYP3A4.
